Consider 2 compounds from ChEMBL document CHEMBL4507315 (2021).

The source made the active and inactive calls. The calls are words filed in the database; no cut-off is given here. A value given as a limit tells only on which side of the number the result lay.

The target in experiment [1] is Kappa-type opioid receptor (Homo sapiens, UniProt P41145). Nature of the experiment: GPCRScan assay: inhibition of KOR. Further details: radioligand conc. used [nm] 0.6 – 1.2, parental cells stable HEK.
Another experiment addresses Histamine H1 receptor (Homo sapiens, UniProt P35367). Nature of the experiment: GPCRScan assay: inhibition of H1. Further details: radioligand conc. used [nm] 0.6 – 2.0, parental cells stable HEK.
The target of experiment [2] is Sigma intracellular receptor 2 (Homo sapiens, UniProt Q5BJF2). Nature of the experiment: GPCRScan assay: inhibition of Sigma 2. The arrangement: radioligand conc. used [nm] 5.0, parental cells HEKT.
Experiment [3] deals with Cyclin-dependent kinase 7 (Homo sapiens) (UniProt P50613). To be noted: Compound concentration 100.0 nM.
Sequence of Cyclin-dependent kinase 7 (Homo sapiens) (P50613 whole entry): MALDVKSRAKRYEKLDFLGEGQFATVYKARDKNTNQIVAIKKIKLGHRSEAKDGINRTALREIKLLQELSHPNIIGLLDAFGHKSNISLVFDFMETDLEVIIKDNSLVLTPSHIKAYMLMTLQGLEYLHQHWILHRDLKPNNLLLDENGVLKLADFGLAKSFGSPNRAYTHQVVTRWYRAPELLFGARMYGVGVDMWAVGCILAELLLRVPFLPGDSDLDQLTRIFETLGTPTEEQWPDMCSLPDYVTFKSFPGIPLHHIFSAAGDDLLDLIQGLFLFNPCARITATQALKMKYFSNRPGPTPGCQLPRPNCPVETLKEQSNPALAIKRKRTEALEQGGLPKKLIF
Experiment [4] concerns the target Serine/threonine-protein kinase 17B (Homo sapiens) (UniProt O94768). To be noted: Compound concentration 100.0 nM.
In experiment [5] the target is Dual specificity tyrosine-phosphorylation-regulated kinase 2 (Homo sapiens) (UniProt Q92630). The note with it: Compound concentration 100.0 nM.
Experiment [6] deals with Mitogen-activated protein kinase 3 (Homo sapiens) (UniProt P27361). The note with it: Compound concentration 100.0 nM.
The target in experiment [7] is Mitogen-activated protein kinase 4 (Homo sapiens) (UniProt P31152). The note with it: Compound concentration 100.0 nM.
Sequence of Mitogen-activated protein kinase 4 (Homo sapiens) (P31152 whole entry): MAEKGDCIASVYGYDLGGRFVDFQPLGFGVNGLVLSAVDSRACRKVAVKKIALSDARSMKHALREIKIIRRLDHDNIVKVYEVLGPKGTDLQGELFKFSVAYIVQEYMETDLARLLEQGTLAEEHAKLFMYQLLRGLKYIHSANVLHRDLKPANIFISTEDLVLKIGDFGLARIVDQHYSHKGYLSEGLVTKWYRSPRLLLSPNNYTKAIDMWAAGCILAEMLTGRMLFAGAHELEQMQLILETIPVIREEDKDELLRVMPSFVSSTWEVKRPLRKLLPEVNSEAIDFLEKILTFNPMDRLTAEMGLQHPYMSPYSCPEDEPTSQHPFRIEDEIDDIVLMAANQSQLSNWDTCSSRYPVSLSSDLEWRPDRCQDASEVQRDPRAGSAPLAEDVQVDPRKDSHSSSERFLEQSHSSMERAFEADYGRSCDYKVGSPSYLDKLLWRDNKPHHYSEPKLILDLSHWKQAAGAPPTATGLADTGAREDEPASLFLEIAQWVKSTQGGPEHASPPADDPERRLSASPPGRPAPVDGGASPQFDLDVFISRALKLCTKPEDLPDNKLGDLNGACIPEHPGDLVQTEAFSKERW
Experiment [8] addresses Tyrosine-protein kinase FRK (Homo sapiens) (UniProt P42685). To be noted: Compound concentration 100.0 nM.
The target of experiment [9] is G protein-coupled receptor kinase 3 (Homo sapiens) (UniProt P35626). To be noted: Compound concentration 100.0 nM.
Sequence of G protein-coupled receptor kinase 3 (Homo sapiens) (P35626 whole entry): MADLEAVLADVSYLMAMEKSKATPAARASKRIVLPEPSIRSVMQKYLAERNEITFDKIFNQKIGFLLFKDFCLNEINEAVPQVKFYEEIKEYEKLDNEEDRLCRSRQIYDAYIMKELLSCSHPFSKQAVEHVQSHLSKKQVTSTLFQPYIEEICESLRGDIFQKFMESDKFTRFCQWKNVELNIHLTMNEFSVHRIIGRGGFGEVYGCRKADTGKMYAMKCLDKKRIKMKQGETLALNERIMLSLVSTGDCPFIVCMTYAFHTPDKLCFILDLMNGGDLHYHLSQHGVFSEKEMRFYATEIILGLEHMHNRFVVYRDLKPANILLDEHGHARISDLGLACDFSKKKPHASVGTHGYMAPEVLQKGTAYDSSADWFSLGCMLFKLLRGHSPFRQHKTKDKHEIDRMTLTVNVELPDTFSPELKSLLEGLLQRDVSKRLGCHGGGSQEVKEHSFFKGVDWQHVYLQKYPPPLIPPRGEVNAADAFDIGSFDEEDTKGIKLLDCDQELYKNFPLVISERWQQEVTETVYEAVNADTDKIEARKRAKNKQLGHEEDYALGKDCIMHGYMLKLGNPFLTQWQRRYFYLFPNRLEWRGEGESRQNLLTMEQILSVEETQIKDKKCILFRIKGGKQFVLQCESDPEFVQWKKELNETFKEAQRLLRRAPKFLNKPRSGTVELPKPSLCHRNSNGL
Experiment [10] deals with Tyrosine-protein kinase JAK1 (Homo sapiens) (UniProt P23458). The note with it: Compound concentration 100.0 nM.
Sequence of Tyrosine-protein kinase JAK1 (Homo sapiens) (P23458 whole entry): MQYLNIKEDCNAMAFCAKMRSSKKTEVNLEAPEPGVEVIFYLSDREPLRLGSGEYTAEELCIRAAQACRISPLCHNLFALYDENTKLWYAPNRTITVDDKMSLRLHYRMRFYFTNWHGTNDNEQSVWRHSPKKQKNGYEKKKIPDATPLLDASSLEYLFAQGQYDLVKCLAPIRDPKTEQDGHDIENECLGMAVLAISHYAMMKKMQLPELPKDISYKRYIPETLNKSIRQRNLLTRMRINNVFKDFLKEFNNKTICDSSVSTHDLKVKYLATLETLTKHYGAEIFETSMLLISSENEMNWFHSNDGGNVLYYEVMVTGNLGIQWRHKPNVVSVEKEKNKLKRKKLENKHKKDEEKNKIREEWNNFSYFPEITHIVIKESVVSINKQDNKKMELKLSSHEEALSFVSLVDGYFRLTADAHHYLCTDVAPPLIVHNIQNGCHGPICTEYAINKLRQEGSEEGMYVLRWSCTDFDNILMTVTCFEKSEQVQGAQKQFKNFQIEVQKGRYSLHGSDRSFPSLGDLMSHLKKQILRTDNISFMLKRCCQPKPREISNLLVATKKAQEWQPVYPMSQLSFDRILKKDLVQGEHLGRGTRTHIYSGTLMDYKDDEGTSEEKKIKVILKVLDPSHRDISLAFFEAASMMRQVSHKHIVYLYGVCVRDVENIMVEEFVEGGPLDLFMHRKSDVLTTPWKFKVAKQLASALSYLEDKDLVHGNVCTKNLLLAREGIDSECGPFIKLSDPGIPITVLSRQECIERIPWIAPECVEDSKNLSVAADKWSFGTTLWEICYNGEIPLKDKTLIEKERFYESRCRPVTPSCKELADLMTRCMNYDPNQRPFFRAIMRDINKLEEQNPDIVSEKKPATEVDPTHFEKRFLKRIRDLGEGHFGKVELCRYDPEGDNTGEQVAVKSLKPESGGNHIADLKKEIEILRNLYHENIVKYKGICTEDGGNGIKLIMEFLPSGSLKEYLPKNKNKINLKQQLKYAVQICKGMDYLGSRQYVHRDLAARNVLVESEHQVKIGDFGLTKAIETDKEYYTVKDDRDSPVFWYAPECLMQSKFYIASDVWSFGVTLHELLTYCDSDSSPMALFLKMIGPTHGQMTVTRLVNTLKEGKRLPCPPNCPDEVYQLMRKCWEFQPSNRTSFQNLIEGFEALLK
Experiment [11] addresses Leukocyte tyrosine kinase receptor (Homo sapiens) (UniProt P29376). The note with it: Compound concentration 100.0 nM.
Experiment [12] concerns the target Dual specificity mitogen-activated protein kinase kinase 1 (Homo sapiens) (UniProt Q02750). The note with it: Compound concentration 100.0 nM.
The target in experiment [13] is Maternal embryonic leucine zipper kinase (Homo sapiens) (UniProt Q14680). To be noted: Compound concentration 100.0 nM.
Experiment [14] deals with Myosin-IIIb (Homo sapiens) (UniProt Q8WXR4). To be noted: Compound concentration 100.0 nM.
The target of experiment [15] is Mitogen-activated protein kinase 14 (Homo sapiens) (UniProt Q16539). To be noted: Compound concentration 100.0 nM.
Experiment [16] has as its target Phosphatidylinositol 4-phosphate 3-kinase C2 domain-containing subunit beta (Homo sapiens) (UniProt O00750). The note with it: Compound concentration 100.0 nM.
Experiment [17] deals with Serine/threonine-protein kinase SIK3 (Homo sapiens) (UniProt Q9Y2K2). To be noted: Compound concentration 100.0 nM.
Sequence of Serine/threonine-protein kinase SIK3 (Homo sapiens) (Q9Y2K2 whole entry, looked up): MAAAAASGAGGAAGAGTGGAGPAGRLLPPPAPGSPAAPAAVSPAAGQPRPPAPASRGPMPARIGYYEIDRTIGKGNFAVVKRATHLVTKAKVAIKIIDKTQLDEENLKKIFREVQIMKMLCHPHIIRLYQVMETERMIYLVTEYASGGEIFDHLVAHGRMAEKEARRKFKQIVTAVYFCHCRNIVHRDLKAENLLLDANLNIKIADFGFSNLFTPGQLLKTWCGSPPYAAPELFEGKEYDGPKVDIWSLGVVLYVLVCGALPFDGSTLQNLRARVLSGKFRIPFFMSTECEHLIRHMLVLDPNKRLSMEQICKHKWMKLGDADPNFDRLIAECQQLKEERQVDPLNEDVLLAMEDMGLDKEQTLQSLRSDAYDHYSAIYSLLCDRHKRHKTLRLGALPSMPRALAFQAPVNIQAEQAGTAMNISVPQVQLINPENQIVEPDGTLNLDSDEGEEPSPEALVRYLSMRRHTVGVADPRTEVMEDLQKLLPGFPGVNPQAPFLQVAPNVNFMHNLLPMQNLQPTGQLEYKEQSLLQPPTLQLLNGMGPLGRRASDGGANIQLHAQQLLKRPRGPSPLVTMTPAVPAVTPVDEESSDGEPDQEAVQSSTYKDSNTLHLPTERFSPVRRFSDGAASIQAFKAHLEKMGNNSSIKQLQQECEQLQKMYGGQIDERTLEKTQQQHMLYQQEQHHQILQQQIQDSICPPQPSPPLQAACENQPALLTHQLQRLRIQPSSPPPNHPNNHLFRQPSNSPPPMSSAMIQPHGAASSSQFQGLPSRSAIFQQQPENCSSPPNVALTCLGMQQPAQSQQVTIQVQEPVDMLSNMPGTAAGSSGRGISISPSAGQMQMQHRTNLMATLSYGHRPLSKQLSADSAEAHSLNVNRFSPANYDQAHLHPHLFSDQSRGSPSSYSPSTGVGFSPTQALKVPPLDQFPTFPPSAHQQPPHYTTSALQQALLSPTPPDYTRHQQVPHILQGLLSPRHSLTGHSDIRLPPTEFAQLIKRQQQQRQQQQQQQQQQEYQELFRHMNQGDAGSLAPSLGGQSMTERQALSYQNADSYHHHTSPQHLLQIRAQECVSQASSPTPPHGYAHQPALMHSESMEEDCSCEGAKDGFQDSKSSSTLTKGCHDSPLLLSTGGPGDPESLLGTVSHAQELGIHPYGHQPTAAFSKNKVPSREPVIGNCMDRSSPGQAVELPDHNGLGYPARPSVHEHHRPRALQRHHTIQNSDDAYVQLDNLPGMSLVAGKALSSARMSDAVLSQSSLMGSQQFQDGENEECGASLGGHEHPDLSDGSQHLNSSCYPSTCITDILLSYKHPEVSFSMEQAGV
For experiment [18], the target named is Ribosomal protein S6 kinase alpha-6 (Homo sapiens) (UniProt Q9UK32). To be noted: Compound concentration 100.0 nM.
Experiment [19] has as its target Serine/threonine-protein kinase Sgk3 (Homo sapiens) (UniProt Q96BR1). To be noted: Compound concentration 100.0 nM.
For experiment [20], the target named is D(4) dopamine receptor (Homo sapiens) (UniProt P21917). To be noted: Compound concentration 10.0 uM.
The target of experiment [21] is Histamine H2 receptor (Homo sapiens) (UniProt P25021). To be noted: Compound concentration 10.0 uM.
Experiment [22] addresses Muscarinic acetylcholine receptor M5 (Homo sapiens) (UniProt P08912). To be noted: Compound concentration 10.0 uM.
Experiment [23] concerns the target Heat shock protein beta-1 (Homo sapiens, UniProt P04792). Nature of the experiment: Inhibition of HSP27 (Ser82) (Western blot). (In general: Immunoblotting shows a protein as a band on a membrane.)
Another experiment is filed under the species Rattus norvegicus. The note with it: Compound concentration 10.0 uM.

Sequence of Kappa-type opioid receptor (P41145 whole entry): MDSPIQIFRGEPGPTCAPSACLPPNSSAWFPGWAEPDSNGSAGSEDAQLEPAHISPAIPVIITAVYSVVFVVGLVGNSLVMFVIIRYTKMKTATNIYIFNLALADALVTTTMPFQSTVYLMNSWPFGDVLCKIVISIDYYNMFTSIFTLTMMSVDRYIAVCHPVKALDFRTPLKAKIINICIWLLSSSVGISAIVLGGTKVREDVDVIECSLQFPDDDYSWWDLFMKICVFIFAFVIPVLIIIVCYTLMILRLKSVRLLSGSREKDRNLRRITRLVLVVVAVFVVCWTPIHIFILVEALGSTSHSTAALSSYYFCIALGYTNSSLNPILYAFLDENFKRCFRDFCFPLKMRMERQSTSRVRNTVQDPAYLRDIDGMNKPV
Sequence of Serine/threonine-protein kinase Sgk3 (Homo sapiens) (Q96BR1 whole entry): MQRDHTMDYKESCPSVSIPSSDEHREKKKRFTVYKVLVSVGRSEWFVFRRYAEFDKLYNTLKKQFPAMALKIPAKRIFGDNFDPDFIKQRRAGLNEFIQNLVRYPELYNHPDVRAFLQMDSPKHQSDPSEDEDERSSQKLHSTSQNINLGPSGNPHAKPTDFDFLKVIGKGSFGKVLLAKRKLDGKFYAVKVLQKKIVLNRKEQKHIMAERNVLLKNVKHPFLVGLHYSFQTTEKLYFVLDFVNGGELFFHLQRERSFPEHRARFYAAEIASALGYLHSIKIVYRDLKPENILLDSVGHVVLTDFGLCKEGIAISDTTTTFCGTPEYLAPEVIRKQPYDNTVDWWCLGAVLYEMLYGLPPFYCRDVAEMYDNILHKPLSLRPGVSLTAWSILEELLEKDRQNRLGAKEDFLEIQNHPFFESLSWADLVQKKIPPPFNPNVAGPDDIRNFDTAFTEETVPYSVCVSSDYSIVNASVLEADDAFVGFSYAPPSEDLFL

On to `O=C(NCCCC1CCCCC1)c1ccc(CNC(=O)c2cnn(-c3ccccc3)c2C(F)(F)F)cc1` [SR-321], for which the Ki in experiment [1] is > 10000 nM; at Histamine H1 receptor it was > 10000 nM; in [2] (read-out: Ki) it was 2890 nM; in [2] (read-out: pKi (converted)), 2820 nM. Further, the pKi (in [1]; at Histamine H1 receptor) was < 5 in each case. The residual activity in experiment [3] is 100%; in experiment [4] it was 100%; in experiment [5], 100%; in [6], 93%; in experiment [7], 100%; in experiment [8] it was 77%. For the same compound, the residual activity was 100% in experiment [9]; 100% in [10]; 100% in experiment [11]; 89% in experiment [12]; 80% in [13]; 100% in [14]. The residual activity in experiment [15] is 100%; in [16] it was 86%; in experiment [17], 76%; in experiment [18], 92%; in experiment [19], 92%. Moreover, the figures for the inhibition in experiment [20], in experiment [21] and in [22] were 21.7%, -2.78% and -4.46%, respectively.

On to `Nc1c(C(=O)NCc2ccc(C(=O)NCCCC3CCCCC3)cc2)cnn1-c1ccccc1` [SR-318], for which the IC50 (usually the point on the concentration scale where inhibition reaches its midpoint) in experiment [23] was < 1000 nM (active). The residual activity in experiment [3] was 100%; in experiment [4], 94%; in experiment [5] it was 97%; in experiment [6] it was 94%; in [7] it was 100%; in experiment [8], 100%. In addition, the residual activity in experiment [9] was 100%; in experiment [10], 100%; in experiment [11], 100%; in [12] it was 100%; in experiment [13], 92%; in [14] it was 100%. The residual activity in experiment [16] was 99%; in [17], 94%; in experiment [18] it was 61%; in [19], 90%. In the experiment filed under Rattus norvegicus, the inhibition (as a rule, the drop in the measured response relative to a control, in per cent) was 27.6%.
